One may read the pEC50 as −log10 of the EC50, conventionally taken in molar units. The CC50 is the concentration at which the toxic effect on the cells reaches its halfway point. A higher CC50 goes with better tolerance by the cells.

pEC50: −log10 of the molar value. Entries after “also recorded” stand apart in the source; their conditions may differ.

1 compound from article PMC7449170, “ATI-2173, a Novel Liver-Targeted Non-Chain-Terminating Nucleotide for Hepatitis B Virus Cure Regimens” (Antimicrobial Agents and Chemotherapy, 2020) can be followed below.

The subject of series [1] is HBV genotype A (HE974371). Description: microbe, parasite or virus in culture. The format is cell-based. As to conditions: Hepatitis B virus, HepG2.
Series [2] deals with HBV genotype F (HE974369). In words: microbe, parasite or virus in culture. As to conditions: Hepatitis B virus, HepG2. The class given is cell-based.
Series [3] relates to HBV genotype G (AB064315). In words: microbe, parasite or virus in culture. The class given is cell-based. The settings on record: Hepatitis B virus, HepG2.
The subject of series [4] is HBV genotype H (AB179747). In words: microbe, parasite or virus in culture. The format is cell-based. As to conditions: Hepatitis B virus, HepG2.
The test system of series [5] is HBV rtV173L+M204I. In words: microbe, parasite or virus in culture. As to conditions: Hepatitis B virus, HepG2. The class given is cell-based.
Series [6] concerns HBV rtM204V. Description: microbe, parasite or virus in culture. The class given is cell-based. The settings on record: Hepatitis B virus, HepG2.
Series [7] concerns HBV rtL180M+M204V. In words: microbe, parasite or virus in culture. As to conditions: Hepatitis B virus, HepG2. The class given is cell-based.
For series [8], the system named is HBV rtN236T. Description: microbe, parasite or virus in culture. The format is cell-based. As to conditions: Hepatitis B virus, HepG2.
Series [9] deals with HBV coreT33N. Description: microbe, parasite or virus in culture. The format is cell-based, Hepatitis B virus. As to conditions: Hepatitis B virus, HepG2.
The test system of series [10] is influenza virus. The class given is cell-based.
For series [11], the system named is herpes simplex virus 1. In words: Antiviral panel: herpes simplex virus 1. The format is cell-based. The settings on record: up to 100 μM, data not shown.
A short description of series [12]: Pharmacokinetics and tissue concentration in rats after single oral dose. The format is in vivo, Sprague-Dawley rats. As to conditions: single oral 50 mg/kg ATI-2173 vs 25 mg/kg clevudine. The method, then: Female Sprague Dawley (SD) rats (from Envigo, NJ), 225 to 249 g, were used in the studies. Clevudine and ATI-2173 were administered by oral gavage (p.o.) in carboxyl methyl cellulose/PEG 400/Tween 20 (0.5%/20%/5%). The oral doses were administered at 25 mg/kg and 50 mg/kg, respectively. Blood samples were collected at 1, 2, 4, 6, 8, and 24 h into lithium-heparin microtainer tubes (BD). Plasma samples were prepared within 30 min after collection by centrifugation at 2,000× rcf for 10 min at 4°C and stored at –80°C before processing for analysis by liquid chromatography-tandem mass spectrometry (LC-MS/MS). Rat organs (skeletal muscle, liver, and heart) were collected from all rats immediately following blood collection at all time points. The tissues were immediately snap-frozen in liquid nitrogen and stored at –80°C before processing for analysis by LC-MS/MS. […]
Samples were maintained at 4°C in a Leap Pal Autosampler (CTC Analytics AG, Zwingen, Switzerland). Plasma concentrations of ATI-2173 and clevudine were determined using qualified methods with an assay range of 10 to 1,000 ng/ml. […] QCs were prepared at 30, 500, and 900 ng/ml and were measured within ± 30% of actual values. […]
Tissue levels were measured according to qualified LC-MS/MS methods with an assay range of 18 to 18,000 ng/g of tissue. […]

Series [13] in a line: Hepatic extraction in portal vein cannulated monkeys. The format is in vivo. As to conditions: cynomolgus monkeys with portal vein cannulation, single oral 20 mg/kg and intravenous 2 mg/kg, data not shown.
Series [14] has as its system HBV genotype D. Description: microbe, parasite or virus in culture. The settings on record: Hepatitis B virus, Hepatocyte, 192 h, read-out: EC50, HBV DNA.
Procedure: HBV genotype D was concentrated from HepDE19 culture supernatants (2.53 × 10^10 genome equivalents [GE]/ml) and provided by WuXi. On day 0, hepatocytes were seeded into a 48-well plate at a density of 1.32 × 10^5 cells/well. On day 1, hepatocytes were infected with 200 HBV GE/cell and were cultured at 37°C and 5% CO2. […] On day 8, the culture supernatants were collected and HBV DNA was harvested with QIAamp 96 DNA blood kit (Qiagen, 51162).
The nature of series [15]: Cell viability (CC50) in HepG2.2.15 cells. The settings on record: human.
For series [16], the system named is HepG2 cells. In words: Mitochondrial toxicity, glucose/galactose assay. As to conditions: 20 mM glucose or 10 mM galactose, up to 100 μM, day 11.
A short description of series [17]: Cell viability (CC50) in primary human hepatocytes.
Series [18] has as its system iCell cardiomyocytes. In words: Cytotoxicity in iCell cardiomyocytes (CellTiter-Glo). As to conditions: up to 100 μM, 72 h. Background: ATP-based viability assays read luminescence as a measure of living cells.
Procedure: (§1) HK-2 human kidney cells were obtained from ATCC (Manassas, VA) and cultured in Gibco Keratinocyte serum-free medium (Thermo Fisher Scientific, Waltham, MA) supplemented with 10% FBS (Peak Serum, Wellington, CO). Human skeletal muscle cells were obtained from Lonza (Walkersville, MD) and cultured in SkGM-2 skeletal muscle cell growth medium-2 (Lonza). Both HK-2 and skeletal muscle cells were cultured humidified at 37°C and 5% CO2. Cryopreserved human primary hepatocytes and medium were received from Lonza. Cryopreserved iCell cardiomyocytes and cardiomyocyte medium were purchased from Stem Cell Technologies (Vancouver, BC, Canada). Cryopreserved human bone marrow mononuclear cells were purchased from Lonza with HemaTox Myeloid medium purchased from [sequence] […] All cryopreserved cells (human primary hepatocytes, iCell cardiomyocytes, and human bone marrow mononuclear cells) were stored in vapor phase liquid nitrogen until the day of plating. […] Serial dilutions of compounds in DMSO were as follows: 100, 10, 1, 0.1, 0.01, 0.001, 0.0001, and 0.00001 μM (final concentration of DMSO in medium was 0.5%). […]
(§2) Following incubation, cells were dosed and incubated for 72 h at 37°C and 5% CO2. Following incubation, the endpoint cell viability CellTiter-Glo 2.0 assay (Promega, San Luis Obispo, CA) was performed and luminescence data collected on a Synergy 4 plate reader (Biotek, Winooski, VT). […]
Series [19] relates to SkMC human skeletal muscle cells. In words: Cytotoxicity in skeletal muscle cells (CellTiter-Glo). The settings on record: at 100 μM or greater, 72 h.
Procedure: as §1, §2
In series [20] the test system is cryopreserved primary human hepatocytes. Description: Cytotoxicity in primary human hepatocytes (CellTiter-Glo). As to conditions: up to 100 μM, 72 h.
Procedure: as §1, §2

As for `Cc1cn(C2OC(COP(=O)(NC(C)C(=O)OC(C)C)Oc3ccccc3)C(O)C2F)c(=O)[nH]c1=O` (centres unmarked) [ATI-2173], the pEC50 is 6.38 in series [1]; 6.48 in [2]; 6.64 in series [3]; 6.14 in series [4]; less than 5.00 in series [5]; 6.79 in series [6]. Further, the pEC50 in [7] was less than 5.00; in series [8], 6.41; in series [9], 6.47; in series [14], 8.88. Moreover, the Antiviral efficacy entry in [10] and in [11] was “no detectable efficacy” throughout. Besides, the “Liver exposure to the 5′-triphosphate versus equimolar clevudine” value in [12] is listed as “nearly identical liver exposure”. In series [13], this compound gave a Hepatic extraction of 82%. The results for the CC50 in [15] and in series [17] were more than 10000 nM and more than 20 nM, respectively. Also, the “Mitochondrial toxicity (cell viability in glucose versus galactose medium)” value in series [16] is reported as “no apparent mitochondrial toxicity”. Moreover, the Cytotoxicity entry in [18] is on record as “did not demonstrate any cytotoxicity”; in series [19] it was “Minimal cytotoxicity; also recorded: very mild”; in [20] it was “did not demonstrate any cytotoxicity”.
